Reference: patent US7879865B2, “Treatment of cancer of the brain using histone deacetylase inhibitors” (Sloan-Kettering Institute for Cancer Research, priority 2001, dated 2011)

What was measured:
[1] = tested on: histone deacetylase (HDAC); test: Acetylated histone levels in mouse tissues after IP injection (Western blot of isolated histones); format: in vivo; conditions: mice, three injections at 1 hour intervals, SAHA 100 mg/kg, pyroxamide 200 mg/kg
Description: FIG. […]
Each mouse was administered three injections at the indicated dose at 1 hour intervals. After the final IP injection tissues (brain, spleen or liver) were isolated at the times indicated. Histones were isolated from tissues essentially as described by Yoshida et al., (1990) J. Biol. Chem. 265:17174-17179. Equal amounts of histones (1 μg) were electrophoresed on 15% SDS-polyacrylamide gels and transferred to Hybond-P filters (Amersham). Filters were blocked with 3% milk and probed with a rabbit purified polyclonal anti-acetylated histone H4 antibody (αAc-H4) and anti-acetylated histone H3 antibody (αAc-H3) (Upstate Biotechnology, Inc.). Levels of acetylated histone were visualized using a horseradish peroxidase-conjugated goat anti-rabbit antibody (1:5000) and the SuperSignal chemiluminescent substrate (Pierce). As a loading control for the histone proteins, parallel gels were run and stained with Coomassie Blue (CB).

[2] = tested on: histone deacetylase enzyme; conditions: cited from earlier work
[3] = tested on: transformed cells in culture; conditions: cited from earlier work
tumor growth = conditions: cited from earlier work

crossing of the blood brain barrier [1]	SMILES	binding to histone deacetylase enzyme [2]	cell cycle arrest, differentiation and/or apoptosis [3]	toxicity to the animal (tumor growth; animals in tumor growth studies)	accumulation of acetylated histones in the tumor (tumor growth; tumor)	inhibition of HDAC activity / accumulation of acetylated histones in the brain ([1]; brain histones, anti-AcH3/AcH4 Western blot)
can cross the blood brain barrier	O=C(CCCCCCC(=O)Nc1ccccc1)NO [SAHA, suberoylanilide hydroxamic acid]	bind directly in the catalytic pocket of the histone deacetylase enzyme	induces cell cycle arrest, differentiation and/or apoptosis of transformed cells in culture	no toxicity to the animal	associated with an accumulation of acetylated histones in the tumor	–
can cross the blood brain barrier	O=C(CCCCCCC(=O)Nc1cccnc1)NO [pyroxamide]	–	–	–	–	significantly inhibit HDAC activity causing the accumulation of acetylated histones in the brain
